# Legend:
# IGPD (Rv1601) = IGPD (Rv1601) (Mycobacterium tuberculosis, UniProt P9WML9); assay: IGPD stopped-assay, IC50 study; assay type: biochemical
# Mtb H37Rv [1] = assay: Resazurin assay (REMA) / alamarBlue MIC; assay type: cell-based; conditions: Mycobacterium tuberculosis, minimal media
# [2] = system: Mtb H37Rv in RAW 264.7 macrophages; assay: Efficacy testing in Mtb infected macrophage model; assay type: cell-based, Mycobacterium tuberculosis; conditions: RAW 264.7, MOI=10, 3 days of treatment, 0-240 μM
# Mtb H37Rv [3] = system: Mtb H37Rv; set-up: species or system Mycobacterium tuberculosis; conditions: in vivo; for bacterial burden in lungs vs untreated control (CFU) / bacterial burden in spleen vs untreated control (CFU): 100 mg/kg
# [4] = Acute oral toxicity study (OECD 425), 14 days; conditions: for serum levels of SGOT, SGPT, creatinine, and urea compared to the untreated group: all doses, day 14; for LD50: oral, single dose, mice; for body weight compared to the untreated group: single oral dose, female mice, monitored for 14 days
# Protocol: Healthy CD-1 female mice with weight 34±4 grams were used. The animals were housed individually in cages and maintained in a standard laboratory environment. […] A limit dose of 2000 mg/kg body weight of compound was used involving three mice. Each mouse was treated with a single oral dose of 5, 50, 500, 2000 mg/kg body weight on Day 0. Animals were observed individually at least once during the first 30 min after dosing, periodically during the first 24 h and daily thereafter, for a total of 14 days for any clinical signs of toxicity or mortality. At the end of 14 day's observation period, the animals were anaesthetized, and their blood samples were collected through retro orbital bleeding for biochemical and histopathological studies, respectively. For biochemical analysis, blood was centrifuged at 4000 rpm at 4° C. for 10 min, serum was separated and Serum Glutamate Pyruvic Transaminase (SGPT), Serum Glutamate Oxaloacetic Transaminase (SGOT), creatinine, and, urea were estimated using a semi-automated Biochemical coralyzer. For histopathological studies, the animals were euthanized and the livers and kidneys were harvested and examined macroscopically. These organs were then preserved in 10% formalin made in PBS for histopathological examinations by standard techniques.
# For this, the liver and kidney tissue samples were embedded into wax blocks. The wax blocks were subjected to microtome to generate sections, which were then stained with Hematoxylin and Eosin dyes at a commercial facility. The tissue sections were viewed in a bright field microscope at 40× magnification.
# [5] = female, CD-1, mouse, in vivo, po, 2000 mg/kg, 14 days
# [6] = single oral dose 5 mg/kg, 5 mice initial, 14 days
# [7] = single oral dose 5 mg/kg, 5 mice, 14 days
# [8] = single oral dose 50 mg/kg, 5 mice initial, 14 days
# [9] = single oral dose 50 mg/kg, 5 mice, 14 days
# [10] = single oral dose 500 mg/kg, 5 mice initial, 14 days
# [11] = single oral dose 500 mg/kg, 5 mice, 14 days
# Chain of IGPD (Rv1601) (P9WML9 whole entry, looked up): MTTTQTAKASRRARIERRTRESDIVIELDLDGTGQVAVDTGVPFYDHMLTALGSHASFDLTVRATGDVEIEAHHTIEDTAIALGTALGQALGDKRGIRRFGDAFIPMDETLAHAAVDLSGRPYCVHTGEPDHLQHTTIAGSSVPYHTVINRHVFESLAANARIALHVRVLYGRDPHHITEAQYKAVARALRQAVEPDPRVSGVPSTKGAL
Compound,IC50 (IGPD (Rv1601)) [µM],MIC99 (Mtb H37Rv [1]) [µM],bacterial load in Mtb infected macrophages (CFU) [2],bacterial burden in lungs vs untreated control (CFU) (Mtb H37Rv [3]; po),bacterial burden in spleen vs untreated control (CFU) (Mtb H37Rv [3]; po),"serum levels of SGOT, SGPT, creatinine, and urea compared to the untreated group [4]","kidney histology (H&E) ([4]; mouse, in vivo)","liver histology (H&E), FIG. 11 ([4]; mouse, in vivo)",LD50 [4],"Mice number final [4, 6]","Total Deaths (D) [4, 7]","Mice number final [4, 8]","Total Deaths (D) [4, 9]","Mice number final [4, 10]","Total Deaths (D) [4, 11]",body weight compared to the untreated group [4],bacterial burden with supplementation of histidine (Mtb H37Rv [3]),other results
"CC(N)c1ncnn1C (centres unmarked) [SF1, 1-(2-methyl-1,2,4-triazol-3-yl)ethanamine]",33.5,31.2,approximately a thousand-fold decline,no reduction in the bacterial burden,no reduction in the bacterial burden,,,,,,,,,,,,,
"CC(C)C(N)c1ncnn1C (centres unmarked) [SF2, 2-methyl-1-(2-methyl-1,2,4-triazol-3-yl)propan-1-amine]",44.1,125,hundred-fold decline,no reduction in the bacterial burden,no reduction in the bacterial burden,no significant changes,no pathological changes,no pathological changes,greater than 2000 mg/kg body weight,5,0,5,0,5,0,increased for all doses while a slight dip in weight for 5 mg/kg body weight on 7th day was observed,restored the bacterial burden to the untreated levels,"Mice number final [4, 5]: 5; Total Deaths (D) [4, 5]: 0; clinical signs in surviving mice ([4]; mouse, in vivo): no clinical signs of adverse effects/toxicity; bacterial load in lungs vs untreated control (CFU) (Mtb H37Rv [3]; po, 200 mg/kg): significant decrease in the bacterial load; reduction in the bacterial load in spleen vs untreated control (CFU) (Mtb H37Rv [3]; po, 200 mg/kg): not found to be statistically significant"
"NCCSc1ncn[nH]1 [SF3, 2-(1H-1,2,4-triazol-5-ylsulfanyl)ethanamine]",76.9,500,did not reduce the bacterial load,significant lowering of the bacterial burden,significant lowering of the bacterial burden,no significant changes,no pathological changes,no pathological changes,below 5000 mg/kg body weight,5,0,5,0,5,0,"decreased for 5, 500, and 2000 mg/kg body weight and increased for 5000 mg/kg body weight",restored the bacterial burden to the untreated levels,"clinical signs in surviving mice ([4]; oral 5, 50, 500 and 2000 mg/kg body weight, 14 days): no clinical signs of adverse effects/toxicity; clinical signs ([4]; single dose of 5000 mg/kg, after 12-24 h): slowness and weight decline; Mice number final ([4]; single oral dose 2000 mg/kg, 5 mice initial, 14 days): 3; Total Deaths (D) ([4]; single oral dose 2000 mg/kg, 5 mice, 14 days): 2; Mice number final ([4]; single oral dose 5000 mg/kg, 5 mice initial, 14 days): 2; Total Deaths (D) ([4]; single oral dose 5000 mg/kg, 5 mice, 14 days): 3"

# Source: US20250388554A1, “ANTIBACTERIAL COMPOUNDS, METHOD OF PRODUCTION AND USE THEREOF” (priority 2024, published 2025)
